From EP4144350B1, “TREATMENT OR PREVENTION OF VASCULAR MALFORMATION” (Universitätsmedizin Greifswald, priority 2021, dated 2023)

What was measured:
Type in all cases: cell-based, human
[1] = test system: CCM3^-/- CI-huVECs in co-culture with CCM3^+/+ CI-huVECs; assay: Spike-in co-culture assay / apoptosis compound library screening: CCM3 knockout allele frequency by amplicon deep sequencing; conditions: for Knockout allele frequencies: 10 µM of each compound, six days, added 5 h and 3 days after seeding, DMSO-treated co-culture controls 33.5 %
Protocol: Clonally expanded CI-huVEC lines with biallelic loss-of-function variants in the first coding exon of CCM3 have been described before or were established according to a published CRISPR/Cas9 genome editing protocol. Blood outgrowth endothelial cells (BOECs) were cultured in EGM-2 medium (Lonza, Basel, Switzerland) supplemented with 18 % FCS. With the approval of the local ethics committee (University Medicine Greifswald, Germany; No.: BB 047/14a), CCM1^-/- BOECs had been established previously from CCM1^+/- BOECs of a CCM1 mutation carrier with CRISPR/Cas9 genome editing. Mutant and wild-type ECs were co-cultured in 96-well plates under standard culture conditions with the indicated mutant-to-wild-type ratios. 2500 cells were seeded per well.
An apoptosis compound library with 189 small molecules that target apoptosis, survival and proliferation was used in a high throughput screening approach (HY-L003[HY-LD-000001651]; MedChem Express, Monmouth Junction, NJ, USA). Co-cultures were treated with 10 µM of each substrate for six days. Compounds were added 5 h and 3 days after cell seeding.
NSC59984 (IUPAC: (2E)-1-(4-Methyl-1-piperazinyl)-3-(5-nitro-2-furyl)-2-propen-1-one, HY19726, MedChem Express), was used for individual experiments with the indicated concentrations.
The fraction of mutant alleles in co-culture were analysed by amplicon deep sequencing or T7EI cleavage assay. In brief, genomic target regions were first amplified by PCR. For T7E1 cleavage assays, heteroduplexes were formed and digested with T7EI enzyme (New England Biolabs, Frankfurt am Main, Germany). Cleavage products were visualised by gel electrophoresis and analysed with the Image Lab software (v6.0, Bio-Rad, Hercules, CA, USA). For NGS analysis, sequencing adapters and individual barcodes were introduced in a second round of PCR [7]. Sequencing libraries were pooled and sequenced on a MiSeq instrument with 2 x 150 cycles (Illumina, San Diego, CA, USA). The data were analysed with the SeqNext software (JSI Medical Systems, Ettenheim, Germany).

[2] = test system: CI-huVECs; assay: Bright-field microscopy of EC morphology after compound treatment; conditions: library screening follow-up (Fig. 14)
[3] = test system: CCM3^+/+ and CCM3^-/- CI-huVECs; assay: Cell viability after compound treatment; conditions: for Cell viability differences between CCM3^+/+ and CCM3^-/- CI-huVECs: 72 h after treatment (Fig. 15)
[4] = test system: caspase-3; assay: Caspase-3 activity assay
Protocol: The proliferation rate of mutant and wild-type ECs in monoculture was quantified with the CyQuant® Cell Proliferation Assay Kit (C7026, Thermo Fisher Scientific). To discriminate the proliferation rates of CCM3^+/+ and CCM3^-/- CI-huVEC in co-culture, the CyQuant® Cell Proliferation Assay results were combined with mutant allele frequencies that had been determined by amplicon deep sequencing. To analyse their sensitivity to apoptosis, mutant and wild-type ECs were seeded in 96-well plates with 15.000 cells per well, and treated with staurosporine (S440, Sigma-Aldrich, St. Louis, MO, USA) 24 h later. The Caspase-3 DEVD-R110 Fluorometric HTS Assay Kit (30009, Biotium, Fremont, CA, USA), the Cell Meter™ Caspase 8 Activity Apoptosis Assay Kit (22798, AAT Bioquest, Sunnyvale, CA, USA), and the Cell Meter™ Caspase 9 Activity Apoptosis Assay Kit (22799, AAT Bioquest) were used following the manufacturer's instructions.

Compound	Knockout allele frequencies [1]	EC morphology / endothelial phenotype [2]	Cell viability differences between CCM3^+/+ and CCM3^-/- CI-huVECs [3]	Caspase-3 activities ([4]; treatment for 24 h, CCM3^+/+ and CCM3^-/- CI-huVECs (Fig. 16))	Cell viability ([3]; Fig. 15)	Apoptosis / caspase-3 activation ([4]; Fig. 16)	Reversal of the NSC59984 (10 µM) effect on clonal expansion of CCM3^-/- cells ([1]; UC2288 1 to 10 µM together with NSC59984 10 µM (Fig. 28))
C=C1C(=O)O[C@@H]2C[C@@]3(C)CCCC(=C)[C@@H]3C[C@H]12 [isoalantolactone, reference compound]	7.7%	induced an abnormal endothelial phenotype and significant cell death	No cell viability differences	did not increase caspase-3 activities			
CC(C)S(=O)(=O)c1ccc2nccc(Nc3ccc4scnc4c3)c2c1 [GSK-872]	65.1%	more compact EC morphology	increased the viability of CCM3^-/- CI-huVECs		increased cell viability at low concentrations	induced moderate caspase-3 activation	
O=C(Nc1ccc(Cl)c(C(F)(F)F)c1)NC1CCC(Oc2ccc(C(F)(F)F)cn2)CC1 (stereo not shown) [UC2288, reference compound]							could not be reversed
